Data published in US8889667B2 (Agios Pharmaceuticals, Inc, priority 2010, dated 2014).

target: PKM2 (Homo sapiens, UniProt P14618); assay: PKM2 Assay (activation, LDH-coupled, absorbance at 340 nm); type: biochemical; conditions: Table 4
How it was run: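 Read-out was the 340 nm NADH absorbance change at 25 °C in an LDH-coupled system (PEP 0.15 mM, NADH 180 μM, ADP 0.7 mM to initiate) in 50 mM Tris pH 7.5, 100 mM KCl, 5 mM MgCl2. PKM2 at 50 ng/well was first preincubated with compound for 30 min at 4 °C. Activation given as AC50.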

Sequence of PKM2 (P14618 whole entry): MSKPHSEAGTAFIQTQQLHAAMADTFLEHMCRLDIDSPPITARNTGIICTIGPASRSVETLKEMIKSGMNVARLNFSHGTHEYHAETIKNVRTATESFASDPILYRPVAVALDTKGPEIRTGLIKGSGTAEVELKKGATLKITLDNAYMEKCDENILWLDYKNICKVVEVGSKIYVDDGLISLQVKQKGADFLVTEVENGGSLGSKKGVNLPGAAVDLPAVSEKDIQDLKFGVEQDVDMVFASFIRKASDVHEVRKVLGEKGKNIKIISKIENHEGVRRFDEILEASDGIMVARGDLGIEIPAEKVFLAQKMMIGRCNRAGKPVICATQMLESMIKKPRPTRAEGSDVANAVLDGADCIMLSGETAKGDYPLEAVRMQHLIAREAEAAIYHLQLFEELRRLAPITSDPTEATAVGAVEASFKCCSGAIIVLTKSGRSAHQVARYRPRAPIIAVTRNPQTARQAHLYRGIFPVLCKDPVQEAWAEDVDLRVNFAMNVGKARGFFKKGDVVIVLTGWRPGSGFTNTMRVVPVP

Row | Molecule | AC50
1 | O=C(c1ccc(NS(=O)(=O)c2cccc3cccnc23)cc1)N1C2CCC1CN(CC1CC1)C2 [Compound 228, N-(4-(3-(cyclopropylmethyl)-3,8-diazabicyclo[3.2.1]octane-8-carbonyl)phenyl)quinoline-8-sulfonamide] | 100 to 500 nM
2 | CC(c1c(F)cc(F)cc1F)N1CCN(C(=O)c2ccc(NS(=O)(=O)c3cccc4cccnc34)cc2)[C@H](C)C1 (some centres unmarked) [Compound 167] | < 100 nM
3 | C[C@@H]1CN(CC2CCC2)CCN1C(=O)c1ccc(NS(=O)(=O)c2cccc3cccnc23)cc1 [Compound 206, (R)—N-(4-(4-(cyclobutylmethyl)-2-methylpiperazine-1-carbonyl)phenyl)quinoline-8-sulfonamide] | < 100 nM
4 | CC(C)OC(=O)N1CCN(C(=O)c2ccc(NS(=O)(=O)c3cccc4cccnc34)cc2)[C@H](C)C1 [Compound 110, (R)-Isopropyl 3-methyl-4-(4-(quinoline-8-sulfonamido)benzoyl)piperazine-1-carboxylate] | < 100 nM
5 | C[C@H]1CN(C(=O)c2ccccn2)CCN1C(=O)c1ccc(NS(=O)(=O)c2cccc3cccnc23)cc1 [Compound 101] | 100 to 500 nM
6 | CC(c1ccc(F)cc1F)N1CCN(C(=O)c2ccc(NS(=O)(=O)c3cccc4cccnc34)cc2)[C@@H](C)C1 (some centres unmarked) [Compound 169] | 100 to 500 nM
7 | CC(C)[C@H]1CN(Cc2cc(F)cc(F)c2)CCN1C(=O)c1ccc(NS(=O)(=O)c2cccc3cccnc23)cc1 [Compound 176] | 1000 to 20000 nM
8 | C[C@@H]1CN(Cc2ccc(Cl)c(F)c2)CCN1C(=O)c1ccc(NS(=O)(=O)c2cccc3cccnc23)cc1 [Compound 125, (R)—N-(4-(4-(4-chloro-3-fluorobenzyl)-2-methylpiperazine-1-carbonyl)phenyl)quinoline-8-sulfonamide] | < 100 nM
9 | COc1ccccc1N1CCN(C(=O)c2ccc(NS(=O)(=O)c3cccc4cccnc34)cc2)C(C)C1 (centres unmarked) [Compound 223, N-(4-(4-(2-methoxyphenyl)-2-methylpiperazine-1-carbonyl)phenyl)quinoline-8-sulfonamide] | < 100 nM
10 | C[C@H]1CN(CC2CCCCC2)CCN1C(=O)c1ccc(NS(=O)(=O)c2cccc3cccnc23)cc1 [Compound 153, (S)—N-(4-(4-(cyclohexylmethyl)-2-methylpiperazine-1-carbonyl)phenyl)quinoline-8-sulfonamide] | 100 to 500 nM
11 | C[C@@H]1CN(Cc2cc(F)c(F)c(F)c2)CCN1C(=O)c1ccc(NS(=O)(=O)c2cccc3cccnc23)cc1 [Compound 149, (R)—N-(4-(2-methyl-4-(3,4,5-trifluorobenzyl)piperazine-1-carbonyl)phenyl)quinoline-8-sulfonamide] | < 100 nM
12 | CCOC(=O)N1[C@H](C)CN(C(=O)c2ccc(NS(=O)(=O)c3cccc4cccnc34)cc2)C[C@@H]1C [Compound 117, (2S,6R)-ethyl 2,6-dimethyl-4-(4-(quinoline-8-sulfonamido)benzoyl)piperazine-1-carboxylate] | > 20000 nM
13 | CC(c1ccc(Cl)c(F)c1)N1CCN(C(=O)c2ccc(NS(=O)(=O)c3cccc4cccnc34)cc2)[C@H](C)C1 (stereo partly drawn) [Compound 157, N-(4-((2R)-4-(1-(4-chloro-3-fluorophenyl)ethyl)-2-methylpiperazine-1-carbonyl)phenyl)quinoline-8-sulfonamide] | 100 to 500 nM
14 | N-(4-(3,5-dimethylpiperazine-1-carbonyl)phenyl)quinoline-8-sulfonamide [Compound 104] | 100 to 500 nM
15 | CC1CN(C(=O)c2ccccn2)CC(C)N1C(=O)c1ccc(NS(=O)(=O)c2cccc3cccnc23)cc1 (racemic) [Compound 116] | 1000 to 20000 nM
16 | CC(C)OC(=O)N1CCN(C(=O)c2ccc(NS(=O)(=O)c3cccc4cccnc34)cc2)[C@@H](C)C1 [Compound 108, (S)-isopropyl 3-methyl-4-(4-(quinoline-8-sulfonamido)benzoyl)piperazine-1-carboxylate] | < 100 nM
17 | C[C@H]1CN(CC2CCC2)CCN1C(=O)c1ccc(NS(=O)(=O)c2cccc3cccnc23)cc1 [Compound 207, (S)—N-(4-(4-(cyclobutylmethyl)-2-methylpiperazine-1-carbonyl)phenyl)quinoline-8-sulfonamide] | 100 to 500 nM

same assay, conditions: Table 5

Row | Molecule | AC50
18 | COc1cc(NS(=O)(=O)c2cccc3cccnc23)ccc1C(=O)N1CCN(C2(c3ccc(F)cc3)CC2)CC1 [Compound 401, N-(4-(4-(1-(4-fluorophenyl)cyclopropyl)piperazine-1-carbonyl)-3-methoxyphenyl)quinoline-8-sulfonamide] | < 100 nM
19 | O=C(c1ccc(NS(=O)(=O)c2cccc3cccnc23)cc1)N1CCN(C2(c3ccccc3)CCCC2)CC1 [Compound 406, N-(4-(4-(1-phenylcyclopentyl)piperazine-1-carbonyl)phenyl)quinoline-8-sulfonamide] | < 100 nM
20 | O=C(c1cc(F)cc(F)c1)N1CCN(C(=O)c2ccc(NS(=O)(=O)c3cccc4cccnc34)c(OC(F)(F)F)c2)CC1 [Compound 326, N-(4-(4-(3,5-difluorobenzoyl)piperazine-1-carbonyl)-2-(trifluoromethoxy)phenyl)quinoline-8-sulfonamide] | 100 to 500 nM
21 | O=C(c1ccc(NS(=O)(=O)c2cccc3cccnc23)cc1)N1CCN(C(=O)c2cnns2)CC1 [Compound 313, N-(4-(4-(1,2,3-thiadiazole-5-carbonyl)piperazine-1-carbonyl)phenyl)quinoline-8-sulfonamide] | < 100 nM
22 | O=C(c1ccc(NS(=O)(=O)c2cccc3cccnc23)nc1)N1CCN(Cc2ccc(F)cc2)CC1 [Compound 412, N-(5-(4-(4-fluorobenzyl)piperazine-1-carbonyl)pyridin-2-yl)quinoline-8-sulfonamide] | 100 to 500 nM
23 | CC(C)(c1ccccc1F)N1CCN(C(=O)c2ccc(NS(=O)(=O)c3cccc4cccnc34)cc2)CC1 [Compound 409, N-(4-(4-(2-(2-fluorophenyl)propan-2-yl)piperazine-1-carbonyl)phenyl)quinoline-8-sulfonamide] | 100 to 500 nM
24 | COc1cccc(F)c1CN1CCN(C(=O)c2ccc(NS(=O)(=O)c3cccc4cccnc34)c(OC(F)(F)F)c2)CC1 [Compound 308, N-(4-(4-(2-fluoro-6-methoxybenzyl)piperazine-1-carbonyl)-2-(trifluoromethoxy)phenyl)quinoline-8-sulfonamide] | 500 to 1000 nM
25 | CC(C)(C(=O)N1CCN(C(=O)c2ccc(NS(=O)(=O)c3cccc4cccnc34)c(OC(F)(F)F)c2)CC1)c1ccccc1 [Compound 359, N-(4-(4-(2-methyl-2-phenylpropanoyl)piperazine-1-carbonyl)-2-(trifluoromethoxy)phenyl)quinoline-8-sulfonamide] | 100 to 500 nM
26 | O=C(c1ccc(NS(=O)(=O)c2cccc3cccnc23)cc1)N1CCN(Cc2c[nH]cn2)CC1 [Compound 386, N-(4-(4-((1H-imidazol-4-yl)methyl)piperazine-1-carbonyl)phenyl)quinoline-8-sulfonamide] | 100 to 500 nM
27 | CC(c1c(F)cc(F)cc1F)N1CCN(C(=O)c2ccc(NS(=O)(=O)c3cccc4cccnc34)cc2)CC1 (centres unmarked) [Compound 397, N-(4-(4-(1-(2,4,6-trifluorophenyl)ethyl)piperazine-1-carbonyl)phenyl)quinoline-8-sulfonamide] | < 100 nM
28 | CC(C)(C(=O)N1CCN(C(=O)c2ccc(NS(=O)(=O)c3cccc4cccnc34)c(OC(F)(F)F)c2)CC1)c1ccc(F)cc1 [Compound 362] | 100 to 500 nM
29 | COc1cc(C(=O)N2CCN(C(=O)c3cscn3)CC2)ccc1NS(=O)(=O)c1cccc2cccnc12 [Compound 322, N-(2-methoxy-4-(4-(thiazole-4-carbonyl)piperazine-1-carbonyl)phenyl)quinoline-8-sulfonamide] | 100 to 500 nM
30 | O=C(c1ccc(NS(=O)(=O)c2cccc3cccnc23)c(OC(F)(F)F)c1)N1CCN(CCc2ccccc2)CC1 [Compound 303, N-(4-(4-phenethylpiperazine-1-carbonyl)-2-(trifluoromethoxy)phenyl)quinoline-8-sulfonamide] | 100 to 500 nM
31 | O=C(c1ccc(NS(=O)(=O)c2cccc3cccnc23)c(OC(F)(F)F)c1)N1CCN(Cc2ccncc2F)CC1 [Compound 304, N-(4-(4-((3-fluoropyridin-4-yl)methyl)piperazine-1-carbonyl)-2-(trifluoromethoxy)phenyl)quinoline-8-sulfonamide] | 100 to 500 nM
32 | O=C(c1ccc(NS(=O)(=O)c2cccc3cccnc23)cc1)N1CCN(C(=O)c2cocn2)CC1 [Compound 347, N-(4-(4-(oxazole-4-carbonyl)piperazine-1-carbonyl)phenyl)quinoline-8-sulfonamide] | 100 to 500 nM
33 | O=C(c1ccc(NS(=O)(=O)c2cccc3cccnc23)cn1)N1CCN(Cc2cc(F)cc(F)c2)CC1 [Compound 414, N-(6-(4-(3,5-difluorobenzyl)piperazine-1-carbonyl)pyridin-3-yl)quinoline-8-sulfonamide] | 100 to 500 nM
34 | O=C(c1ccc(NS(=O)(=O)c2cccc3cccnc23)c(OC(F)(F)F)c1)N1CCN(Cc2ncc[nH]2)CC1 [Compound 380, N-(4-(4-((1H-imidazol-2-yl)methyl)piperazine-1-carbonyl)-2-(trifluoromethoxy)phenyl)quinoline-8-sulfonamide] | 100 to 500 nM
35 | CC(C)(c1cc(F)cc(F)c1)N1CCN(C(=O)c2ccc(NS(=O)(=O)c3cccc4cccnc34)cc2)CC1 [Compound 410] | < 100 nM
36 | O=C(c1ccc(NS(=O)(=O)c2cccc3cccnc23)cc1F)N1CCN(Cc2cc(F)c(F)c(F)c2)CC1 [Compound 423, N-(3-fluoro-4-(4-(3,4,5-trifluorobenzyl)piperazine-1-carbonyl)phenyl)quinoline-8-sulfonamide] | < 100 nM
37 | O=C(c1ccc(NS(=O)(=O)c2cccc3cccnc23)c(OC(F)(F)F)c1)N1CCN(C(=O)c2ccccc2F)CC1 [Compound 360] | 100 to 500 nM
38 | O=C(c1ccc(NS(=O)(=O)c2cccc3cccnc23)cc1)N1CCN(C2(c3ccccc3)CCCCC2)CC1 [Compound 407, N-(4-(4-(1-phenylcyclohexyl)piperazine-1-carbonyl)phenyl)quinoline-8-sulfonamide] | < 100 nM
